Test results from patent US20210275596A1, “APPLICATION OF GENE PROFILE FOR CELLS ISOLATED USING FRESH-TRACER” (CELL2IN, INC., priority 2018, published 2021).

How the values were obtained:
Format in all cases: cell-based, human
HeLa cells [1] = test: FR monitoring in cells loaded with FreSH-tracer; conditions: for change of FR: HeLa cells equilibrated with 5 μM FreSH-tracer for 2 hours
Experimental: To utilize a FreSH-tracer for GSH monitoring in living cells, its cytotoxicity was evaluated. […] HeLa cells were equilibrated with treatment of 5 μM FreSH-tracer for 2 hours. […] The FR in the nucleus was about 1.5- to 2-fold higher than that of the cytoplasm.
The in vitro experiments described above established that H2O2 treatment diminishes only the FRGSH, while having little effect on the FRPSH. […] Thus, the FreSH-tracer can report the real-time dynamic changes of GSH concentration in live cells under oxidative stress.

hES-MSCs [2] = test: GSH depletion or supplementation: clonogenic and migration capacities
hES-MSCs [3] = test: Chemotaxis to PDGF-AA; conditions: for effect on chemoattraction to PDGF: naive hES-MSCs
Experimental: FIGS. 4A, 4B, 4C and 4D are graphs showing analyses of colony-forming unit fibroblasts (CFU-F; n=15), limiting dilution by replating primary CFU colonies (n=6), chemotaxis to stromal derived factor-1α (SDFα; 150 ng/mL, n=8), and chemotaxis to 10 ng/mL platelet-derived growth factor (PDGF)-AA in the absence or presence of STI571 (0.5 μg/mL), a PDGFR inhibitor (n=8).
At this time, for differentiation media, the cells were maintained and cultured in each of adipogenic induction medium (DMEM supplemented with 5% FBS, […], […], […] and 0.5 mM isobutylmethylxanthine), osteogenic induction medium (DMEM supplemented with 5% FBS, […], […], and 10 mM glycerophosphate), and chondrogenic induction medium (e.g., StemPro chondrogenesis, Invitrogen). FIG. 3 is a graph showing the results of qPCR performed to quantify lineage-specific genes in non-differentiated(Non) FR^High cells and FR^Low cells and differentiated(Diff) FR^High cells and FR^Low cells. Additionally, FR^High hES-MSCs had approximately 4.7- and 4.9-fold higher numbers of CFU-F than did FR^Mild and FR^Low cells, respectively (FIG. 4A).

HeLa cells [4] = test: Mitochondrial FR monitoring with MitoFreSH-tracer
Source text: The mitochondrion is the major site of endogenous ROS generation during normal oxidative metabolism. Cytosolic GSH is transported to the mitochondria, preventing macromolecular damage and modulating ROS-induced signaling. To further analyze the FR heterogeneity in the cytoplasm, a mitochondria-targeting FreSH-tracer derivative, designated MitoFreSH-tracer was synthesized by attaching a triphenylphosphonium moiety to a FreSH-tracer.

O=[N+]([O-])c1ccc(Cl)c([N+](=O)[O-])c1 [1-chloro-2,4-dinitrobenzene]
restoring of FR after diamide (HeLa cells [1]; GSH-depleted HeLa cells): abrogated

CCCCS(=N)(=O)CCC(N)C(=O)O (centres unmarked) [BSO, buthionine sulfoximine]
effect on enhanced clonogenic and migration capacities and related gene upregulation (hES-MSCs [2]; FR^High hES-MSCs): severely impaired | effect on chemoattraction to PDGF (hES-MSCs [3]): significant repression

O[C@@H](CS)[C@@H](O)CS [DTT]
change of FR (HeLa cells [1]): rapidly increased

CCOC(=O)CNC(=O)[C@H](CS)NC(=O)CC[C@H](N)C(=O)O [GSH-EE, glutathione ethyl ester]
effect on declined cellular functions (hES-MSCs [2]; FR^Low hES-MSCs): reversed | effect on chemoattraction to PDGF (hES-MSCs [3]): activation

CCN1C(=O)C=CC1=O [NEM]
change of FR (HeLa cells [1]): gradually decreased

Cc1ccc(NC(=O)c2ccc(CN3CCN(C)CC3)cc2)cc1Nc1nccc(-c2cccnc2)n1 [STI571]
effect on PDGF chemotactic activity of FR^High cells (hES-MSCs [3]; STI571 0.5 μg/mL, 10 ng/mL PDGF-AA): significantly blocked

CN(C)C(=O)/N=N/C(=O)N(C)C [diamide]
change of FR (HeLa cells [1]): gradually decreased | change of mitochondrial FR (HeLa cells [4]): decreased

antimycin A
change of mitochondrial FR (HeLa cells [4]): concentration-dependent decrease
